Experimental data as given in patent US4820717A, “Antimicrobial aromatic derivatives substituted by an (omega amino) alkanol group and compositions containing them” (priority 1985, dated 1989).
≈ marks a conversion by molar mass, not a printed value.

Tests used:
Assay type in all cases: cell-based
[1] = system: Encapsulated klebsiella pneumoniae R030; test: Bactericidal activity (MBC), strain 2; conditions: 20 min, strain 2, 20 minutes of contact, read-out: Minimum bactericidal concentration (MBC)
From the text: (§1) The bactericidal activity of the products according to the invention has been analyzed on various strains by the method described hereafter:
(§2) A bacterial inoculum is placed in contact with different dilutions of the product to be tested, and this for a limited period of time. At the end of contact, an aliquot part of the mixture bacterial suspension/product is deposited on the surface of an agar culture medium containing an agent neutralizing the antibacterial activity of the product. The bactericidal concentration retained is the smallest concentration of the product from which bacteria stop growing. Said concentration is expressed in μg/ml.
(§3) The bacterial strains selected for the analysis are:
2--Encapsulated klebsiella pneumoniae R030;
(§4) The second strain is supported on a Worgel Fergusson medium, the other strains being supported on Tryptic Soy Agar-Difco (TSA) commercialized by Difco.
(§5) After a 24-hour culture period at 37° C., the microbial growth is collected by means of glass beads and of 10 ml of diluent containing 1 g of tryptone and 8.5 g of sodium chloride in 1000 ml of distilled water. The formed suspension is stirred and the percentage of light transmission at 620 nm is measured with a spectrophotometer:
(§6) The bacterial inoculum corresponds to a 1/20th dilution of this bacterial suspension.
(§7) Plates equipped with cupules receive different dilutions of the product to be analyzed. These dilutions are placed in contact with the different bacterial suspensions by means of a multiple-center inoculator. After 20 minutes of contact, aliquot parts are transferred by means of said inoculator on the surface of an agar medium (TSA) in Petri dishes, containing an activity-neutralizing agent, namely 20 g of lubrol W, 25 g of Tween 80 and 2.5 g of sodium thiosulfate in 1000 ml of TSA (Difco). The efficiency of the neutralizing agent is controlled for each product to be analyzed by depositing on the surface of the culture medium an aliquot part of the dilution of the product to be analyzed. After drying, the corresponding inoculum is deposited in the same place. An inoculum control is performed on an agar medium with or without neutralizing agent. Readings are taken after 48 hours of incubation at 37° C.

[2] = system: Staphylococcus aureus CNCM 53154; test: Bactericidal activity (MBC), strain 5; conditions: CNCM53154, 20 min, strain 5, 20 minutes of contact, read-out: Minimum bactericidal concentration (MBC)
From the text: as §1, §2, §3
5--Staphylococcus aureus CNCM 53154.
as §4, §5, §6, §7

[3] = system: Candida albicans CNCM 1180; test: Antifungal activity (MFC), strain 1; conditions: 20 min; yeast strain 1; read-out: Minimum fongicidal concentration (MFC)
From the text: as §2, §7
(§8) The antifungal activity of the products according to the invention was also determined with the aforedescribed method.
(§9) The fungal strains selected for the analysis are:
1--Candida albicans CNCM 1180;
(§10) These strains are supported on a Sabouraud Dextrose agar medium commercialized by Difco; the technique used is the same as that used in the analysis of the antibacterial activity. After 48 hours of culture at 37° C., the microbial growth is collected with glass beads and 5 ml of diluent containing 1 g of tryptone and 8.5 g of sodium chloride in 1000 ml of distilled water; 5 ml of the diluent are then added. […] A 1/100th dilution of this suspension, observed between slides under a microscope 40-lens, should show 10 cells per frame, this corresponding to 1,000,000 yeasts per ml.

[4] = system: Pseudomonas aeruginosa CNCM A22; test: Bactericidal activity (MBC), strain 3; conditions: CNCMA22, 20 min, strain 3, 20 minutes of contact, read-out: Minimum bactericidal concentration (MBC)
From the text: as §1, §2, §3
3--Pseudomonas aeruginosa CNCM A22;
as §4, §5, §6, §7

[5] = system: Torulopsis glabrata 072023; test: Antifungal activity (MFC), strain 4; conditions: 20 min; yeast strain 4; read-out: Minimum fongicidal concentration (MFC)
From the text: as §2, §7, §8, §9, §10

[6] = system: Streptococcus faecalis CNCM 5855; test: Bactericidal activity (MBC), strain 4; conditions: Enterococcus faecalis, CNCM5855, 20 min; strain 4, 20 minutes of contact; read-out: Minimum bactericidal concentration (MBC)
From the text: as §1, §2, §3
4--Streptococcus faecalis CNCM 5855;
as §4, §5, §6, §7

Candida parakruzei 3918 = test: Antifungal activity (MFC), strain 3; conditions: 20 min; yeast strain 3; read-out: Minimum fongicidal concentration (MFC)
From the text: as §2, §7, §8, §9
3--Candida parakruzei 3918;
as §10

[7] = system: Escherichia Coli CNCM 54125; test: Bactericidal activity (MBC), strain 1; conditions: 20 min, strain 1, 20 minutes of contact, read-out: Minimum bactericidal concentration (MBC)
From the text: as §1, §2, §3
1--Escherichia Coli CNCM 54125;
as §4, §5, §6, §7

Candida tropicalis 3834 = test: Antifungal activity (MFC), strain 2; conditions: 20 min; yeast strain 2; read-out: Minimum fongicidal concentration (MFC)
From the text: as §2, §7, §8, §9
2--Candida tropicalis 3834;
as §10

| SMILES | MBC [1] [µg/mL] | MBC [2] [µg/mL] | MFC [3] [µg/mL] | MBC [4] [µg/mL] | MFC [5] [µg/mL] | MBC [6] [µg/mL] | MFC (Candida parakruzei 3918) [µg/mL] | MBC [7] [µg/mL] | MFC (Candida tropicalis 3834) [µg/mL] |
| --- | --- | --- | --- | --- | --- | --- | --- | --- | --- |
| OCC(CCCN1CCCCC1)c1cccc2ccccc12 (stereo not shown) [SR 43 087 A] | 1000 (≈ 3360 µM) | 800 (≈ 2690 µM) | 1000 (≈ 3360 µM) | 800 (≈ 2690 µM) | 5000 (≈ 16800 µM) | 2000 (≈ 6720 µM) | 1000 (≈ 3360 µM) | 1500 (≈ 5040 µM) | 1000 (≈ 3360 µM) |
| OCC(CCN1CCCCC1)c1ccc2ccccc2c1 (stereo not shown) [SR 43 154 A] | 1500 (≈ 5290 µM) | 1000 (≈ 3530 µM) | – | 800 (≈ 2820 µM) | – | 1500 (≈ 5290 µM) | – | 2000 (≈ 7060 µM) | – |
| CCC(CO)(CCN1CCCCC1)c1cccc2ccccc12.Cl (stereo not shown) [SR 43 245 A, 2-ethyl-2-(1-naphthyl)-4-piperidino-butanol hydrochloride] | 1000 | 1000 | – | 800 | – | 1500 | – | 1500 | – |
| OCC(CCN1CCc2ccccc2C1)c1cccc2ccccc12 (stereo not shown) [SR 43 247 A] | 300 (≈ 905 µM) | 500 (≈ 1510 µM) | 1000 (≈ 3020 µM) | 300 (≈ 905 µM) | 2000 (≈ 6030 µM) | 300 (≈ 905 µM) | 1000 (≈ 3020 µM) | 300 (≈ 905 µM) | 500 (≈ 1510 µM) |
| CC1CCN(CCCC(CO)c2cccc3ccccc23)CC1 (stereo not shown) [SR 43 290 A] | 800 (≈ 2570 µM) | 800 (≈ 2570 µM) | – | 800 (≈ 2570 µM) | – | 4000 (≈ 12800 µM) | – | 1500 (≈ 4820 µM) | – |
| CN1CCN(CCC(CO)c2cccc3ccccc23)CC1 (stereo not shown) [SR 43 291A, reference compound] | 3000 (≈ 10100 µM) | 8000 (≈ 26800 µM) | – | 1000 (≈ 3350 µM) | – | > 10000 | – | 5000 (≈ 16800 µM) | – |
| CC1CCN(CCC(CO)c2cccc3ccccc23)CC1 (stereo not shown) [SR 43 382 A] | 2000 (≈ 6720 µM) | 2000 (≈ 6720 µM) | 5000 (≈ 16800 µM) | 2000 (≈ 6720 µM) | 10000 (≈ 33600 µM) | 5000 (≈ 16800 µM) | 2000 (≈ 6720 µM) | 5000 (≈ 16800 µM) | 1000 (≈ 3360 µM) |
| OCC(CCN1CCCCCC1)c1c(Cl)cccc1Cl (stereo not shown) [SR 43 703 A] | 600 (≈ 1900 µM) | 1000 (≈ 3160 µM) | – | 400 (≈ 1260 µM) | – | 800 (≈ 2530 µM) | – | 600 (≈ 1900 µM) | – |
| OCC(CCN1CCC(Cc2ccccc2)CC1)c1ccccc1 (stereo not shown) [SR 43 705 A] | 500 (≈ 1550 µM) | 500 (≈ 1550 µM) | – | 500 (≈ 1550 µM) | – | 500 (≈ 1550 µM) | – | 500 (≈ 1550 µM) | – |
| OCC(CCN1CCCCCC1)c1ccc(Cl)cc1Cl (stereo not shown) [SR 43 802 A] | 1000 (≈ 3160 µM) | 5000 (≈ 15800 µM) | – | 1000 (≈ 3160 µM) | – | 2000 (≈ 6320 µM) | – | 1000 (≈ 3160 µM) | – |
| OCC(CCN1CCCCCC1)c1ccc(Cl)c(Cl)c1 (stereo not shown) [SR 43 803 A] | 400 (≈ 1260 µM) | 400 (≈ 1260 µM) | 1000 (≈ 3160 µM) | 500 (≈ 1580 µM) | 2000 (≈ 6320 µM) | 400 (≈ 1260 µM) | 500 (≈ 1580 µM) | 400 (≈ 1260 µM) | 500 (≈ 1580 µM) |
| CCN(CC)CCCCCCCCCC(CO)c1cccc2ccccc12 (stereo not shown) [SR 43 826 A] | 50 (≈ 135 µM) | 50 (≈ 135 µM) | 250 (≈ 676 µM) | 50 (≈ 135 µM) | 250 (≈ 676 µM) | 50 (≈ 135 µM) | 50 (≈ 135 µM) | 50 (≈ 135 µM) | 50 (≈ 135 µM) |
| CCN(CC)CCCCCCC(CO)c1cccc2ccccc12 (stereo not shown) [SR 43 940 A] | 50 (≈ 153 µM) | 50 (≈ 153 µM) | – | 50 (≈ 153 µM) | – | 50 (≈ 153 µM) | – | 50 (≈ 153 µM) | – |
| OCC(CCCCCN1CCC(Cc2ccccc2)CC1)c1cccc2ccccc12 (stereo not shown) [SR 43 941 A] | 50 (≈ 120 µM) | 50 (≈ 120 µM) | 100 (≈ 241 µM) | 50 (≈ 120 µM) | 250 (≈ 602 µM) | 50 (≈ 120 µM) | 250 (≈ 602 µM) | 50 (≈ 120 µM) | 100 (≈ 241 µM) |
| Cl.OCC(CCN1CCC(Cc2ccccc2)CC1)c1ccc(Cl)c(Cl)c1 (stereo not shown) [SR 43 969 A, 4-(4-benzylpiperidino)-2-(3,4-dichlorophenyl)butanol hydrochloride] | 100 | 50 | 50 | 500 | 500 | 100 | 100 | 50 | 50 |
| OCC(CCCN1CCN(c2ccccc2)CC1)c1ccccc1 (stereo not shown) [SR 43 970 A, reference compound] | 5000 (≈ 15400 µM) | 5000 (≈ 15400 µM) | – | 2000 (≈ 6160 µM) | – | 10000 (≈ 30800 µM) | – | 5000 (≈ 15400 µM) | – |
| OCC(CCN1CCC(Cc2ccccc2)CC1)c1ccc(-c2ccccc2)cc1 (stereo not shown) [SR 44 029 A] | 50 (≈ 125 µM) | 50 (≈ 125 µM) | 50 (≈ 125 µM) | 50 (≈ 125 µM) | 100 (≈ 250 µM) | 50 (≈ 125 µM) | 50 (≈ 125 µM) | 10 (≈ 25 µM) | 50 (≈ 125 µM) |
| Cc1cccc(C(CO)CCN2CCC(Cc3ccccc3)CC2)c1 (stereo not shown) [SR 44 226 A] | 1000 (≈ 2960 µM) | 2000 (≈ 5930 µM) | – | 500 (≈ 1480 µM) | – | 1000 (≈ 2960 µM) | – | 1000 (≈ 2960 µM) | – |
| OCC(CCN(C1CCCCC1)C1CCCCC1)c1cccc2ccccc12 (stereo not shown) [SR 44 227 A] | 300 (≈ 790 µM) | 500 (≈ 1320 µM) | – | 500 (≈ 1320 µM) | – | 100 (≈ 263 µM) | – | 100 (≈ 263 µM) | – |
